# Assay results: patent US20130303564A1, “METHOD FOR TREATING A NEURODEGENERATIVE DISORDER” (RUSH UNIVERSITY MEDICAL CENTER, priority 2012, published 2013)
# Read-outs that look alike come from different tables or passages of the source. Marks after values point to notes of the source that are not given here.
# Columns and labels:
# IL-1β [1] = tested on: IL-1β
# Description: (§1) Activated microglia and astroglia are known to produce excessive amount of NO having the potential of damaging neurons in neurodegenerative disorders. We investigated the effect of NaPB on the expression of iNOS in microglia. LPS is a prototype inducer of various proinflammatory molecules in different cell types including mouse microglia. Therefore, primary mouse microglia preincubated with different doses of NaPB for 6 h were stimulated with LPS under serum-free condition. […] We used trichostatin A (TSA) and sodium butyrate (NaBu) for this purpose.
# (§2) Isolation of Mouse Microglia: Microglia were isolated from mixed glial cultures. Briefly, on day 7-9, the mixed glial cultures were washed three times with Dulbecco's modified Eagle's medium/F-12 and subjected to shaking at 240 rpm for 2 h at 37° C. on a rotary shaker. The floating cells were washed and seeded on to plastic tissue culture flasks and incubated at 37° C. for 1 h. The attached cells were seeded onto new plates for further studies. […] Mouse BV-2 microglial cells (kind gift from Virginia Bocchini of Universityof Perugia) were also maintained and induced as indicated above.
# TNF-α = tested on: TNF-α
# Description: as §1, §2
# IL-1β [2] = conditions: different concentrations, 6 h preincubation, 1 μM MPP+ 5 h
# Description: Mouse BV-2 microglial cells were treated with different concentrations of NaPB for 6 h followed by stimulation with 1 μM. MPP under serum-free condition. After 5 h of stimulation, the mRNA expression of iNOS, IL-1β and TNF-α was monitored by semi-quantitative RT-PCR (A) and quantitative real-time PCR (C, iNOS; D, IL-1β; E, TNF-α). After 24 h of stimulation, the protein expression of iNOS was monitored by Western blot (B).
# Glial inflammation is a critical component of PD pathogenesis which is mirrored in MPTP mouse models. The neurotoxic effect of MPTP depends on its conversion into MPP+. In glial cells, MAO-B converts MPTP to MPP+, which then leads to glial activation. MPP+ is able to stimulate the microglial expression of inflammatory molecules including NO, TNF-α, IL-1β, and IL-6. Although, a well characterized receptor for MPP+ was not known in microglial cells until recent past, low dose of MPP+ stimulates microglial activation via the engagement of cysteinyl leukotriene receptor (CysLT1R), MPP+ dependent activation of CysLT1R and its subsequent translocation from plasma membrane to cytosol plays a critical role in the process of microglial activation. Therefore, we investigated MPP+ could induce the expression of proinflammatory molecules microglia and if NaPB suppressed such induction.
# (§3) Real-time PCR analysis: It was performed in the ABI-Prism7700 sequence detection system (Applied Biosystems, Foster City, Calif.) using TaqMan Universal Master mix and optimized concentrations of FAM-labeled probes and primers.
# CD11b = tested on: CD11b
# Description: (§4) A) Mice were treated with NaPB (200 mg/kg body wt/d) from 3 h after the last injection of MPTP. Twenty-four h after the last injection of MPTP, ventral midbrain sections were immunostained for GFAP and CD11b. Results represent analyses of four nigral sections (two images per slide) from each of four mice. The mRNA expression GFAP and CD11b was analyzed by semi-quantitative RT-PCR (B) and quantitative real-time PCR (C).
# (§5) Recently activation of glial cells is being considered as a pathological hallmark in PD and other neurodegenerative disorders. Increased expression of CD11b, the beta-integrin marker of microglia, represents microglial activation during neurodegenerative inflammation. Similarly, upon activation, astrocytes also express enhanced level of GFAP, which is considered as a marker protein for astrogliosis. We investigated if NaPB could attenuate MPTP-induced activation of glial cells in vivo in the nigra of mice.
# (§6) Semi-quantitative RT-PCR analysis for proinflammatory molecules (iNOS, IL-1β and TNF-α) and glial cell markers: Total RNA was isolated from ventral midbrain using Ultraspec-II RNA reagent (Biotecx .Laboratories, Inc., Houston, Tex.) following manufacturer's protocol. To remove any contaminating genomic DNA, total RNA was digested with DNase. RT-PCR was carried out using a RT-PCR kit (Clontech., Mountain View, Calif.) and following primers.
# as §3
# GFAP = tested on: GFAP
# Description: as §4, §5, §6, §3
# MPTP-intoxicated mice = assay: Locomotor and open-field activities in acute MPTP-intoxicated mice; type: in vivo, mouse; conditions: NaPB 200 mg/kg body wt/day from 3 h after last MPTP; 7 d
# Description: Mice receiving FTI, GGTI or the combination of the two via daily intraperitoneal injection from 3h after the last injection of MPTP were tested for motor functions (B, horizontal activity; C, total distance; D, number of movement; E, stereotypy) 7 d after the last injection of MPTP followed by measuring DA in striatum (A).
# The ultimate therapeutic goal of neuroprotection is to decrease functional impairment. Therefore, to examine whether NaPB protects not only against structural and neurotransmitter damage but also against functional deficits caused by MPTP, we monitored locomotor and open-field activities. MPTP injection caused marked decrease in rotorod performance (FIG. 15A), movement time (FIG. 15B), total distance (FIG. 15C), stereotypy (FIG. 15E), rearing (FIG. 15F), and horizontal activity (FIG. 15G). On the other hand, MPTP increased the rest time (FIG. 15D).
# Therefore, we investigated if inhibition of either p21^ras or p21^rac alone was sufficient for the protection of the nigrostriatum. MPTP-intoxicated mice received FTI and GGTI, either separately at 10 mg/kg body wt/d or together at 5 mg/kg body wt/d, via i.p. injection from 3 h after the last injection of MPTP. […]
# Behavioral analyses: Two types of behavioral experiments were conducted. […] Locomotor activity measures were assessed after baseline value comparison.
# [3] = tested on: RelA p65 at the mouse iNOS promoter; conditions: 0.5 mM, 6 h preincubation, LPS 2 h; proximal NF-κB binding site
# Description: D) Cells preincubated with 0.5 mM NaPB for 6 h were stimulated with LPS for 2 h followed by monitoring the recruitment of RelA p65 to the mouse iNOS promoter by ChIP assay.
# Therefore, next we examined the effect of NaPB on the recruitment of p65 to the proximal NF-κB binding site of the iNOS promoter.
# Chromatin immunoprecipitation (CUP): ChIP assays were performed using a ChIP assay kit (Upstate Biotechnology, Lake Placid, N.Y.). Briefly, 2×10^6 microglial cells preincubated with gemfibrozil for 6 h were stimulated with LPS. After 3 h of stimulation, cells were fixed by adding formaldehyde (1% final concentration), and cross-linked adducts were resuspended and sonicated, resulting in an average chromatin fragment size of 400 bp. ChIP was performed on the cell lysate by overnight incubation at 4° C. with 2 μg of antibodies against p65 followed by incubation with protein G agarose (Santa Cruz Biotechnology) for 2 h. The beads were washed and incubated with elution buMr. To reverse the cross-linking and purify the DNA, precipitates were incubated in a 65° C. incubator overnight and digested with proteinase K. DNA samples were then purified, precipitated, and precipitates were washed with 75% ethanol, air-dried, and resuspended in TE buffer.
# p21^rac = conditions: 200 mg/kg body wt/day gavage from 1 d prior to MPTP; 6 h after last MPTP
# Description: A) Mice were treated with NaPB (200 mg/kg body wt/d.) via gavage from 1 d prior to MPTP injection. Six h after the last injection of MPTP, activation of p21^ras and p21^rac was monitored in ventral midbrain tissues. Experiment was repeated three times each time using two animal in each group. B) Bands from three different mice were quantified and activation of p21^ras and p21^rac is shown as percent of control, C) Mice were treated with NaPB (200 mg/kg body wt/d) from 3 h after the last injection of MPTP.
# Animals and MPTP intoxications: Six- to eight-week old C57BL/6 mice were purchased from Harlan, Indianapolis, Ind. For acute MPTP intoxication, mice received four intraperitoneal (i.p.) injections of MPTP-HCl (18 mg/kg of free base; Sigma Chemical Co., St. Louis, Mo.) in saline at 2 hr intervals. Control animals received only saline.
# [4] = LPS + NaPB (0.1 mM), 6 hrs preincubation, LPS 24 hrs, supernatant ELISA
# [5] = LPS + NaPB (0.2 mM), 6 hrs preincubation, LPS 24 hrs, supernatant ELISA
# [6] = LPS + NaPB (0.5 mM), 6 hrs preincubation, LPS 24 hrs, supernatant ELISA
# [7] = 200 mg/kg body wt/d from 3 h after last MPTP, RT-PCR, real-time PCR
# [8] = 200 mg/kg body wt/d oral from 3 h after last MPTP, 24 h, immunofluorescence
substance,measurement,setting,value
sodium phenylbutyrate [NaPB],IL-1β production,IL-1β [1]; [4],9.9 ± 1.4 ng/mg protein/24 hr
same,IL-1β production,IL-1β [1]; [5],7.5 ± 1.1 ng/mg protein/24 hr
same,IL-1β production,IL-1β [1]; [6],5.3 ± 0.6^a ng/mg protein/24 hr
same,IL-1β production,"IL-1β [1]; NaPB (0.5 mM) only, no LPS",0 ng/mg protein/24 hr
same,production of IL-1β protein in activated microglia,IL-1β [1]; Table 1,dose-dependently inhibited
same,TNF-α production,TNF-α; [4],16.8 ± 1.5 ng/mg protein/24 hr
same,TNF-α production,TNF-α; [5],12.7 ± 0.8 ng/mg protein/24 hr
same,TNF-α production,TNF-α; [6],8.6 ± 1.1^a ng/mg protein/24 hr
same,TNF-α production,"TNF-α; NaPB (0.5 mM) only, no LPS",0 ng/mg protein/24 hr
same,production of TNF-α protein in activated microglia,TNF-α; Table 1,dose-dependently inhibited
same,MPP+-induced expression of IL-1β mRNA,IL-1β [2],inhibited
same,MPTP-induced mRNA expression of CD11b in the nigra,CD11b; [7],suppressed
same,CD11b protein expression in the nigra,CD11b; [8],inhibition
same,MPTP-induced mRNA expression of GFAP in the nigra,GFAP; [7],suppressed
same,GFAP protein expression in the nigra,GFAP; [8],inhibition
same,"MPTP-induced hypolocomotion (rotorod, movement time, total distance, rest time, stereotypy, rearing, horizontal activity)",MPTP-intoxicated mice,significantly improved
same,recruitment of p65 to the iNOS promoter,[3],inhibited
same,MPTP-induced activation of p21^rac in the nigra,p21^rac,much decreased activation
